Laboratory results reported in PubChem BioAssay AID1963831 (Molecular Pharmacology Branch, DTP, NCI, 2024).

System: 889142-216-R-J1-PDC complex spheroid viability
Experiment: Anticancer human tumor 889142-216-R-J1-PDC patient-derived bladder carcinoma cell line growth inhibition [POLQ]
Conditions: for IC50: curve of first compound; for viability, T/C: stronger effect = lower value
Method in brief: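 Complex spheroid viability model combining PDC tumour cells with endothelial (HUVEC) and MSC stromal cells. Novobiocin, ART-558 or RP6685 were tested singly and in combination with standard and investigational anticancer drugs. Each was titrated in half-log steps from near clinical Cmax, or from 10 microM where Cmax was unknown.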

[1] = second compound 0.0316 µM, first compound 0.0316 µM
[2] = second compound 0.0316 µM, first compound 0.1 µM
[3] = second compound 0.0316 µM, first compound 0.316 µM
[4] = second compound 0.0316 µM, first compound 1 µM
[5] = second compound 0.0316 µM, first compound 3.16 µM
[6] = second compound 0.0316 µM, first compound 10 µM
[7] = second compound 0.1 µM, first compound 0.0316 µM
[8] = second compound 0.1 µM, first compound 0.1 µM
[9] = second compound 0.1 µM, first compound 0.316 µM
[10] = second compound 0.1 µM, first compound 1 µM
[11] = second compound 0.1 µM, first compound 3.16 µM
[12] = second compound 0.1 µM, first compound 10 µM
[13] = second compound 0.316 µM, first compound 0.0316 µM
[14] = second compound 0.316 µM, first compound 0.1 µM
[15] = second compound 0.316 µM, first compound 0.316 µM
[16] = second compound 0.316 µM, first compound 1 µM
[17] = second compound 0.316 µM, first compound 3.16 µM
[18] = second compound 0.316 µM, first compound 10 µM
[19] = second compound 1 µM, first compound 0.0316 µM
[20] = second compound 1 µM, first compound 0.1 µM
[21] = second compound 1 µM, first compound 0.316 µM
[22] = second compound 1 µM, first compound 1 µM
[23] = second compound 1 µM, first compound 3.16 µM
[24] = second compound 1 µM, first compound 10 µM
[25] = second compound 3.16 µM, first compound 0.0316 µM
[26] = second compound 3.16 µM, first compound 0.1 µM
[27] = second compound 3.16 µM, first compound 0.316 µM
[28] = second compound 3.16 µM, first compound 1 µM
[29] = second compound 3.16 µM, first compound 3.16 µM
[30] = second compound 3.16 µM, first compound 10 µM
[31] = second compound 10 µM, first compound 0.0316 µM
[32] = second compound 10 µM, first compound 0.1 µM
[33] = second compound 10 µM, first compound 0.316 µM
[34] = second compound 10 µM, first compound 1 µM
[35] = second compound 10 µM, first compound 3.16 µM
[36] = second compound 10 µM, first compound 10 µM
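Also: spheroids exposed to compounds for seven days.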
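For viability, T/C in this document: 100% = DMSO vehicle control viability.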

CCc1cc2c(N3CCc4c(cc(Cn5ccnc5)cc4-c4cn(C)nc4C(F)(F)F)C3=O)ccnc2c(OC)n1 + Nc1ccc(C#CCN(C(=O)Cc2ncc(C(F)(F)F)cc2C(F)(F)F)c2ccc(F)cc2)nn1
IC50 (second compound 0.0316 µM): > 10 µM | IC50 (second compound 0.1 µM): > 10 µM | IC50 (second compound 0.316 µM): > 10 µM | IC50 (second compound 1 µM): > 10 µM | IC50 (second compound 3.16 µM): > 10 µM | IC50 (second compound 10 µM): > 10 µM | viability, T/C [1]: 98% | viability, T/C [2]: 105% | viability, T/C [3]: 116% | viability, T/C [4]: 137% | viability, T/C [5]: 103% | viability, T/C [6]: 80.2% | viability, T/C [7]: 115% | viability, T/C [8]: 117% | viability, T/C [9]: 104% | viability, T/C [10]: 125% | viability, T/C [11]: 99.2% | viability, T/C [12]: 117% | viability, T/C [13]: 98.8% | viability, T/C [14]: 107% | viability, T/C [15]: 116% | viability, T/C [16]: 124% | viability, T/C [17]: 127% | viability, T/C [18]: 82.1% | viability, T/C [19]: 103% | viability, T/C [20]: 93.7% | viability, T/C [21]: 125% | viability, T/C [22]: 123% | viability, T/C [23]: 99% | viability, T/C [24]: 105% | viability, T/C [25]: 105% | viability, T/C [26]: 104% | viability, T/C [27]: 120% | viability, T/C [28]: 124% | viability, T/C [29]: 111% | viability, T/C [30]: 105% | viability, T/C [31]: 118% | viability, T/C [32]: 101% | viability, T/C [33]: 129% | viability, T/C [34]: 135% | viability, T/C [35]: 120% | viability, T/C [36]: 92.8%

CNCc1ccc(-c2[nH]c3cc(F)cc4c3c2CCNC4=O)cc1 + Nc1ccc(C#CCN(C(=O)Cc2ncc(C(F)(F)F)cc2C(F)(F)F)c2ccc(F)cc2)nn1
IC50 (second compound 0.0316 µM): > 10 µM | IC50 (second compound 0.1 µM): > 10 µM | IC50 (second compound 0.316 µM): > 10 µM | IC50 (second compound 1 µM): > 10 µM | IC50 (second compound 3.16 µM): > 10 µM | IC50 (second compound 10 µM): > 10 µM | viability, T/C [1]: 109% | viability, T/C [2]: 115% | viability, T/C [3]: 123% | viability, T/C [4]: 108% | viability, T/C [5]: 74.8% | viability, T/C [6]: 84.5% | viability, T/C [7]: 133% | viability, T/C [8]: 93% | viability, T/C [9]: 104% | viability, T/C [10]: 96.3% | viability, T/C [11]: 107% | viability, T/C [12]: 83.9% | viability, T/C [13]: 144% | viability, T/C [14]: 82.9% | viability, T/C [15]: 78.2% | viability, T/C [16]: 78.2% | viability, T/C [17]: 81.2% | viability, T/C [18]: 82.8% | viability, T/C [19]: 128% | viability, T/C [20]: 83.3% | viability, T/C [21]: 99.3% | viability, T/C [22]: 88.2% | viability, T/C [23]: 92.3% | viability, T/C [24]: 75.5% | viability, T/C [25]: 116% | viability, T/C [26]: 96.1% | viability, T/C [27]: 134% | viability, T/C [28]: 122% | viability, T/C [29]: 106% | viability, T/C [30]: 81.4% | viability, T/C [31]: 125% | viability, T/C [32]: 98.4% | viability, T/C [33]: 104% | viability, T/C [34]: 129% | viability, T/C [35]: 108% | viability, T/C [36]: 96.8%

COc1ccc([C@@H](O)c2cc(-c3ncnc4cc(N5CCOCC5)ccc34)c(F)cc2Cl)nn1 + Nc1ccc(C#CCN(C(=O)Cc2ncc(C(F)(F)F)cc2C(F)(F)F)c2ccc(F)cc2)nn1
IC50 (second compound 0.0316 µM): 3.14 µM | IC50 (second compound 0.1 µM): 5.02 µM | IC50 (second compound 0.316 µM): 4.55 µM | IC50 (second compound 1 µM): 5.06 µM | IC50 (second compound 3.16 µM): 5.83 µM | IC50 (second compound 10 µM): 6.74 µM | viability, T/C [1]: 84.6% | viability, T/C [2]: 80.6% | viability, T/C [3]: 81.5% | viability, T/C [4]: 87.8% | viability, T/C [5]: 49.8% | viability, T/C [6]: 35.2% | viability, T/C [7]: 113% | viability, T/C [8]: 77.5% | viability, T/C [9]: 80% | viability, T/C [10]: 73.4% | viability, T/C [11]: 56.8% | viability, T/C [12]: 39.5% | viability, T/C [13]: 87.5% | viability, T/C [14]: 95% | viability, T/C [15]: 72.9% | viability, T/C [16]: 72.8% | viability, T/C [17]: 54% | viability, T/C [18]: 39.6% | viability, T/C [19]: 86.2% | viability, T/C [20]: 72.1% | viability, T/C [21]: 72.4% | viability, T/C [22]: 65.9% | viability, T/C [23]: 62.2% | viability, T/C [24]: 37.8% | viability, T/C [25]: 74.3% | viability, T/C [26]: 65.4% | viability, T/C [27]: 73.8% | viability, T/C [28]: 65.2% | viability, T/C [29]: 63.2% | viability, T/C [30]: 39.3% | viability, T/C [31]: 105% | viability, T/C [32]: 77.9% | viability, T/C [33]: 96.7% | viability, T/C [34]: 60.1% | viability, T/C [35]: 56.6% | viability, T/C [36]: 47.5%
